In patent US20080004227A1, “Pharmaceutical Composition for Lowering Blood Sugar Level” (PHARMAFRONTIER CO., LTD, priority 2004, published 2008):

What was measured:
[1] = tested on: human intestinal cell line NCI-H716; conditions: literature report, background art; cited from earlier work
GLP-1 release = assay: In vivo effects of ligands for GT01 on GLP-1 release (plasma GLP-1 enzyme immunoassay); design: species or system mouse; conditions: 100 nmol/g directly into the stomach of 24-hour fasted C57/B6 mice; blood 0.5 or 2 hours after administration (FIG. 11)
Method: A 100 nmol/g of fatty acid (α-linolenic acid, stearic acid, or octanoic acid) was included in polyethyleneglycol as a vehicle, and given, through a tube, directly into the stomach of 8-week old male C57/B6 mice (Sankyo Lab) after 24-hour fasting. The mice were each anaesthetized with diethyl ether 0.5 or 2 hours after the administration of the fatty acid, followed by sampling the blood from the portal vein using a heparinized syringe. The heparizized blood was centrifuged at 4° C. and 1,200×g for 20 minutes to prepare a plasma which was then subjected to enzyme immunoassay for GLP-1 (Yanaihara Institute Inc.). All experiments were performed according to an institute-approved guideline.

GT01 = GT01 (Mus musculus, UniProt Q7TMA4); conditions: STC-1 cells; peak eliminated by RNAi specific for GT01 (FIG. 6)
GT01, sequence (Q7TMA4 whole entry): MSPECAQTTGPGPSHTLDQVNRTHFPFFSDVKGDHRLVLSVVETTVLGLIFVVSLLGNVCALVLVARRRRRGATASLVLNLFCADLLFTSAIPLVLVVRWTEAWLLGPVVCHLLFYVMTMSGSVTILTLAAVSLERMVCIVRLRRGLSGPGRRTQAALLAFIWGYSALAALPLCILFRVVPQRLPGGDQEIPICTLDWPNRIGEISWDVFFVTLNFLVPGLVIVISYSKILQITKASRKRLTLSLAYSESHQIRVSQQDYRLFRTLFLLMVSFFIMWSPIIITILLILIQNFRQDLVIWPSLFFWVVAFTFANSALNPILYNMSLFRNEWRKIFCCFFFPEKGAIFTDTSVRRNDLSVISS
Method: Cells (STC-1 cells) are cultured in a 35-mm culture dish with a cover glass in the bottom. After washing with a Ca-tyrode solution, a Ca-tyrode solution containing 2 μM fura-AM is added thereto, which is then placed at room temperature for 20 minutes. After washing twice with a Ca-tyrode solution, 1 mL of Ca-tyrode solution is added thereto, and images are captured at room temperature at 15-second intervals using ARGUS200 (340/380 nm measurement) with a 40× objective lens. For each of the captured images, the ratio is calculated. Stimulation (using bombesin) serving as a control for the ligand is carried out 10 and 20 minutes later.
When an RNAi vector was transfected, fluorescence due to GFP simultaneously transfected is measured; a Ca^2+ response over time for cells having GFP fluorescence and showing Ca^2+ elevation with the control vector was quantitatively determined, and is indicated (FIG. 6).
The gene transfection into STC-1 cells was carried out using Lipofectamine Plus, and intracellular Ca^2+ concentration was then measured under a microscope (lower graph in FIG. 6).

insulin release = conditions: 100 nmol/g directly into the stomach of 24-hour fasted C57/B6 mice; 2 hours after administration (FIG. 13)
Method: All experiments were performed according to an institute-approved guideline.

| Structure (SMILES) | secretion of GLP-1 from NCI-H716 cells [1] | secretion of GLP-1 (plasma from portal vein) (GLP-1 release) | elevation of intracellular calcium concentration (GT01) | insulin concentration in plasma, portal vein versus inferior vena cava (insulin release) |
| --- | --- | --- | --- | --- |
| CCCCCCCC/C=C\CCCCCCCC(=O)O [oleic acid] | promotes the secretion of GLP-1 | – | – | – |
| CCCCCCCCCCCCCCCC(=O)O [palmitic acid] | promotes the secretion of GLP-1 | – | – | – |
| CCCCCCCCCCCCCCCCCC(=O)O [stearic acid] | – | induced | – | – |
| CC/C=C\C/C=C\C/C=C\CCCCCCCC(=O)O [α-linolenic acid] | – | induced | elevates intracellular calcium concentration via GT01 | higher concentration of insulin was detected in the plasma sampled from the portal vein |
